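Method: 48-hour compound exposure of cells in 96-well plates, five concentrations, linear interpolation of endpoints. The concentration for 50% growth inhibition is given as GI50.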 Active and inactive are the calls of the source. Cut-off read from the data, not from the text of the source: active = GI50 up to about 1.1 µM and inactive = higher.
Columns and labels:
Test in all cases: growth of human tumour cells (NCI), 48 h
NCI-H226 = test system: NCI-H226
SW-620 = test system: SW-620
MCF7 = test system: MCF7
K562 = test system: K562
DU-145 = test system: DU-145
786-0 = test system: 786-0
ACHN = test system: ACHN
RPMI-8226 = test system: RPMI-8226
KM12 = test system: KM12
OVCAR-3 = test system: OVCAR-3
T47D = test system: T47D
OVCAR-4 = test system: OVCAR-4
Malme-3M = test system: Malme-3M
IGROV-1 = test system: IGROV-1
SNB-19 = test system: SNB-19
U-251 = test system: U-251
NCI-H522 = test system: NCI-H522
M14 = test system: M14
A498 = test system: A498
UACC-62 = test system: UACC-62

SMILES | GI50 (NCI-H226) | GI50 (SW-620) | GI50 (MCF7) | GI50 (K562) | GI50 (DU-145) | GI50 (786-0) | GI50 (ACHN) | GI50 (RPMI-8226) | GI50 (KM12) | GI50 (OVCAR-3) | GI50 (T47D) | GI50 (OVCAR-4) | GI50 (Malme-3M) | GI50 (IGROV-1) | GI50 (SNB-19) | GI50 (U-251) | GI50 (NCI-H522) | GI50 (M14) | GI50 (A498) | GI50 (UACC-62)
CN(C)CCCNC(=O)CCNC(=O)c1cc(NC(=O)c2cc(NC(=O)c3cc(NC(=O)c4nc(NC(=O)CCCNC(=O)c5cc(NC(=O)c6cc(NC(=O)c7cc(NC(=O)c8nccn8C)cn7C)cn6C)cn5C)cn4C)cn3C)cn2C)cn1C | > 100 µM (inactive) | > 100 µM (inactive) | > 100 µM (inactive) | > 100 µM (inactive) | > 100 µM (inactive) | > 100 µM (inactive) | > 100 µM (inactive) | > 100 µM (inactive) | 73.5 µM (inactive) | > 100 µM (inactive) | > 100 µM (inactive) | > 100 µM (inactive) | > 100 µM (inactive) | > 100 µM (inactive) | > 100 µM (inactive) | > 100 µM (inactive) | > 100 µM (inactive) | > 100 µM (inactive) | > 100 µM (inactive) | 
COc1cc2cc(c1Cl)N(C)C(=O)C[C@H](OC(=O)[C@H](C)N(C)C(C)=O)[C@]1(C)O[C@H]1[C@H](C)[C@@H]1C[C@@](O)(NC(=O)O1)[C@H](OC)/C=C/C=C(/C)C2 | 0.0435 µM (active) | 0.0165 µM (active) | 0.018 µM (active) | 0.0176 µM (active) | 0.00135 µM (active) | 0.025 µM (active) | 0.0526 µM (active) | 0.0133 µM (active) | 0.0149 µM (active) | 0.0127 µM (active) | > 100 µM (inactive) | 0.794 µM (active) | 0.0351 µM (active) | 0.0239 µM (active) | 0.0149 µM (active) | 0.015 µM (active) | 0.0173 µM (active) | 0.0509 µM (active) | 0.0161 µM (active) | 0.0337 µM (active)
CN(C)Cc1cc(C(=O)/C=C/c2cccc(Cl)c2)cc(CN(C)C)c1O | 4.31 µM (inactive) | 4.41 µM (inactive) | 4.44 µM (inactive) | 2.91 µM (inactive) | 6.3 µM (inactive) | 3.29 µM (inactive) | 2.99 µM (inactive) | 2.69 µM (inactive) | 4.97 µM (inactive) | 2.67 µM (inactive) | 4.18 µM (inactive) |  |  | 3.27 µM (inactive) | 24.5 µM (inactive) | 2.74 µM (inactive) | 5.98 µM (inactive) | 3.37 µM (inactive) | 3.22 µM (inactive) | 6.56 µM (inactive)
Oc1cc(O)c2c(c1)OC(c1ccc(O)c(O)c1)C(O)C2c1c(O)cc(O)c2c1OC(c1ccc(O)c(O)c1)C(O)C2 (stereo unspecified) | > 100 µM (inactive) | 45.4 µM (inactive) | > 100 µM (inactive) |  | > 100 µM (inactive) | > 100 µM (inactive) | > 100 µM (inactive) | > 100 µM (inactive) | 46.5 µM (inactive) | > 100 µM (inactive) | > 100 µM (inactive) | > 100 µM (inactive) | > 100 µM (inactive) | > 100 µM (inactive) | > 100 µM (inactive) | > 100 µM (inactive) | > 100 µM (inactive) | > 100 µM (inactive) | 45.5 µM (inactive) | > 100 µM (inactive)
CN(C)c1ccc(/C=C(\NC(=O)c2ccccc2)C(=O)Nc2ccccc2C(=O)NCc2ccccc2)cc1 | 50.8 µM (inactive) | > 100 µM (inactive) | > 100 µM (inactive) | > 100 µM (inactive) | > 100 µM (inactive) | > 100 µM (inactive) | > 100 µM (inactive) | 67.5 µM (inactive) | 58.5 µM (inactive) | > 100 µM (inactive) | > 100 µM (inactive) | 58.2 µM (inactive) | > 100 µM (inactive) | > 100 µM (inactive) | 85.5 µM (inactive) | 46.8 µM (inactive) | 27.6 µM (inactive) | 77.6 µM (inactive) | > 100 µM (inactive) | > 100 µM (inactive)
CC(C)=CCOC(=O)C(C)=[N+]=[N-] | > 100 µM (inactive) | > 100 µM (inactive) | > 100 µM (inactive) | > 100 µM (inactive) | > 100 µM (inactive) | > 100 µM (inactive) | > 100 µM (inactive) | > 100 µM (inactive) | > 100 µM (inactive) | > 100 µM (inactive) | > 100 µM (inactive) | > 100 µM (inactive) | > 100 µM (inactive) | > 100 µM (inactive) | > 100 µM (inactive) | > 100 µM (inactive) | > 100 µM (inactive) |  | > 100 µM (inactive) | > 100 µM (inactive)
Oc1c(CN2CCOCC2)ccc2cccnc12 | > 10 µM (inactive) | > 10 µM (inactive) | 4.14 µM (inactive) | 4.4 µM (inactive) | > 10 µM (inactive) | > 10 µM (inactive) | > 10 µM (inactive) | > 10 µM (inactive) | > 10 µM (inactive) | > 10 µM (inactive) | 7.41 µM (inactive) | > 10 µM (inactive) | > 10 µM (inactive) | > 10 µM (inactive) | > 10 µM (inactive) | > 10 µM (inactive) | 2.62 µM (inactive) | > 10 µM (inactive) | > 10 µM (inactive) | 
C=CCN1C(=O)/C(=C/c2ccc(C)cc2)NC1=S | 88.3 µM (inactive) | > 100 µM (inactive) | 70.6 µM (inactive) | 41.9 µM (inactive) | > 100 µM (inactive) | > 100 µM (inactive) | > 100 µM (inactive) | 39.4 µM (inactive) | 97.7 µM (inactive) | > 100 µM (inactive) | 67.1 µM (inactive) | 57 µM (inactive) |  | > 100 µM (inactive) | > 100 µM (inactive) | > 100 µM (inactive) | 43 µM (inactive) | 87.7 µM (inactive) | 47 µM (inactive) | 60.1 µM (inactive)
Brc1cccc[n+]1-c1ccc2cc(-[n+]3ccccc3Br)ccc2c1 | > 100 µM (inactive) | 44.5 µM (inactive) | 35.7 µM (inactive) | 59.2 µM (inactive) | 14.8 µM (inactive) | 26.4 µM (inactive) | 17.7 µM (inactive) | 19.5 µM (inactive) | 20.8 µM (inactive) | 19.8 µM (inactive) | 22.3 µM (inactive) |  | 23.1 µM (inactive) | 11.4 µM (inactive) | 72.8 µM (inactive) | 15.6 µM (inactive) | 40.1 µM (inactive) | > 100 µM (inactive) | > 100 µM (inactive) | 45.1 µM (inactive)
COP(=O)(OC)C(Nc1ccc(Cc2ccc(NC(c3ccco3)P(=O)(OC)OC)cc2)cc1)c1ccco1 (stereo unspecified) | > 100 µM (inactive) | > 100 µM (inactive) | > 100 µM (inactive) | > 100 µM (inactive) | > 100 µM (inactive) | 13.8 µM (inactive) | 20.9 µM (inactive) |  | > 100 µM (inactive) | 85.1 µM (inactive) | 67.1 µM (inactive) | > 100 µM (inactive) | 47.9 µM (inactive) | 31.4 µM (inactive) | 11.9 µM (inactive) | 5.33 µM (inactive) | 28.3 µM (inactive) | 38.1 µM (inactive) | 19 µM (inactive) | 17 µM (inactive)
COc1ccccc1NC(=S)N/N=C/c1ccccn1 | 2.12 µM (inactive) | 0.124 µM (active) | 0.0504 µM (active) | < 0.0187 µM (active) | 1.88 µM (inactive) | 0.157 µM (active) | 0.11 µM (active) | 0.0658 µM (active) | 0.597 µM (active) | < 0.015 µM (active) | 0.0867 µM (active) | 0.619 µM (active) | 0.193 µM (active) |  | 4.17 µM (inactive) | 0.12 µM (active) | < 0.0157 µM (active) | 0.0692 µM (active) | 0.255 µM (active) | 0.466 µM (active)
C/C=C(/C)C(=O)O[C@H]1C(C)=C[C@]23C(=O)[C@@H](C=C(COC(C)=O)[C@@H](O)[C@]12O)[C@H]1[C@@H](C[C@H]3C)[C@@]1(C)OC(=O)/C(C)=C\C | 3.07 µM (inactive) | 2.55 µM (inactive) | 2.35 µM (inactive) | 0.0205 µM (active) | 2.23 µM (inactive) | 1.52 µM (inactive) | 0.546 µM (active) |  | 1.32 µM (inactive) | 3.05 µM (inactive) | 1.22 µM (inactive) | 2.77 µM (inactive) | 0.111 µM (active) | 3.2 µM (inactive) | 3.01 µM (inactive) | 2.45 µM (inactive) | 1.8 µM (inactive) | 2.29 µM (inactive) | 2.72 µM (inactive) | 2.37 µM (inactive)
COc1ccc(-c2c3c(n(C4OC(COC(C)=O)C(OC(C)=O)C(OC(C)=O)C4OC(C)=O)c(=S)c2C#N)CCCC3)cc1 (stereo unspecified) | > 100 µM (inactive) | 51.5 µM (inactive) | > 100 µM (inactive) | 65.6 µM (inactive) | 44.9 µM (inactive) | > 100 µM (inactive) | 55.6 µM (inactive) |  | > 100 µM (inactive) | 19.6 µM (inactive) | 34.3 µM (inactive) | 25.5 µM (inactive) | 82.6 µM (inactive) | 28.8 µM (inactive) | 24.7 µM (inactive) | 45 µM (inactive) | 25.3 µM (inactive) | > 100 µM (inactive) | 15.2 µM (inactive) | 20 µM (inactive)
Nc1nc(Cl)cc(NCC2(CO)COC2)n1 | > 100 µM (inactive) | > 100 µM (inactive) | > 100 µM (inactive) | > 100 µM (inactive) | > 100 µM (inactive) | > 100 µM (inactive) | > 100 µM (inactive) | > 100 µM (inactive) | > 100 µM (inactive) | > 100 µM (inactive) | 53.8 µM (inactive) | > 100 µM (inactive) | > 100 µM (inactive) | > 100 µM (inactive) |  | > 100 µM (inactive) | > 100 µM (inactive) |  | > 100 µM (inactive) | > 100 µM (inactive)
